Experimental data from patent publication US6166066A, “Cannabinoids selective for the CB2 receptor” (The University of Connecticut, priority 1999, dated 2000).

Legend:
CB1 receptor [1] = details: in the brain; background; cited from earlier work
CB2 receptor [2] = details: in the spleen; background; cited from earlier work
CB1 receptor [3] = biological target: T1, CB1 receptor (Rattus norvegicus, UniProt P20272); assay: Radioligand binding assay ([H^3]CP-55,940), rat forebrain membranes as source of CB1; details: 0.8 nM [H^3]CP-55,940, 30° C., 1 hour, Ki from IC50 (Cheng and Prusoff)
T1 construct: rat forebrain membranes as a source of CB1; from tissue; host or cells: rat brain membranes (called forebrain; prepared from whole brains minus the cerebral cortex)
Protocol: The binding affinities of the novel compounds described in this invention for the central cannabinoid receptor were assessed using rat forebrain membranes as a source of CB1. Membranes were prepared as described by the method of Dodd et al., Brain Res. 226:107 (1981), the entire teachings of which are incorporated herein by reference. Rat whole brains minus the cerebral cortex were diced with a razor blade and homogenized in 0.32 M sucrose, pH 7.4. The resulting suspension was spun at 400×g at 4° C. The supernatant was decanted and layered over 1.2 M sucrose in TME buffer (25 mM Tris base, 5 mM MgCl2 1 mMEDTA, pH 7.4) and spun at 109,000×g. The interface containing plasma membrane protein was collected, pooled and layered over 0.8 M sucrose in TME, pH 7.4. The pellet was carefully resuspended in TME, pH 7.4 and the total protein content was assayed by the method of Markwell et al., Anal. Biochem. 87:206 (1978), the entire teachings of which are incorporated herein by reference. Protein was aliquotted, frozen under liquid nitrogen and stored at -80° C. until use.
(§1) Approximately 30 μg of tissue was incubated in silanized 96 well microtiter plate with TME containing 0.1% essentially fatty acid free bovine serum albumin (BSA), 0.8 nM [H^3 ]CP-55,940 and various concentrations of the test compound in a final volume of 200 μL. Assays were incubated at 30° C. for 1 hour. The samples were filtered using Packard Filtermate 196 and Whatman GF/C Filterplates and washed with wash buffer (TME) containing 0.5% BSA. Radioactivity was detected using MicroScint 20 scintillation cocktail added directly to the dried filterplates, and the filterplates were counted using a Packard Instruments Top-Count. Nonspecific binding was assessed using 100 nM CP-55,940. Data collected from three independent experiments performed with duplicate determinations were normalized between 100% and 0% specific binding for [H^3 ]CP-55,940, determined using buffer and 100 nM CP-55,940. The normalized data was analyzed using a 4 parameter nonlinear logistic equation to yield IC50 values. Data from at least two independent experiments performed in duplicate were used to calculate IC50 values which were convered to Ki values using the assumptions of Cheng and Prusoff, Biochem. Pharmacol. 22:3099 (1973), the entire teachings of which are incorporated by reference.

CB2 receptor [4] = biological target: T2, CB2 receptor (Mus musculus, UniProt P47936); assay: Radioligand binding assay ([H^3]CP-55,940), mouse spleen as source of CB2; details: for Ki: mouse spleen, conducted in the same manner as for CB1, Ki from IC50 (Cheng and Prusoff)
T2 construct: Mouse spleen was used as a source of CB2 receptors; from tissue; host or cells: mouse spleen
Protocol: as §1
Mouse spleen was used as a source of CB2 receptors to assess binding affinity of analogs described in this invention. The CB2 binding assay was conducted in the same manner as for CB1. Silanized centrifuge tubes were used throughout to minimize receptor loss due to adsorption.

T2 sequence (P47936 whole entry): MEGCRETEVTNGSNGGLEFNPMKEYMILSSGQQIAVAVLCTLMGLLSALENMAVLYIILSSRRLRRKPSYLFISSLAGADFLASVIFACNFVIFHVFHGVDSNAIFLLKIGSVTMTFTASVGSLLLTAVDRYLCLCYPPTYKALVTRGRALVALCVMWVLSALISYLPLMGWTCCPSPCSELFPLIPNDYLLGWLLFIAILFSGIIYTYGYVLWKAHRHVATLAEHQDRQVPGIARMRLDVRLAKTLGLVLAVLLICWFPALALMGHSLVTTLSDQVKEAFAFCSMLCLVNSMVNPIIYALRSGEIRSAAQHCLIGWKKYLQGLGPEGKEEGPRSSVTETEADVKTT
T1 sequence (P20272 whole entry): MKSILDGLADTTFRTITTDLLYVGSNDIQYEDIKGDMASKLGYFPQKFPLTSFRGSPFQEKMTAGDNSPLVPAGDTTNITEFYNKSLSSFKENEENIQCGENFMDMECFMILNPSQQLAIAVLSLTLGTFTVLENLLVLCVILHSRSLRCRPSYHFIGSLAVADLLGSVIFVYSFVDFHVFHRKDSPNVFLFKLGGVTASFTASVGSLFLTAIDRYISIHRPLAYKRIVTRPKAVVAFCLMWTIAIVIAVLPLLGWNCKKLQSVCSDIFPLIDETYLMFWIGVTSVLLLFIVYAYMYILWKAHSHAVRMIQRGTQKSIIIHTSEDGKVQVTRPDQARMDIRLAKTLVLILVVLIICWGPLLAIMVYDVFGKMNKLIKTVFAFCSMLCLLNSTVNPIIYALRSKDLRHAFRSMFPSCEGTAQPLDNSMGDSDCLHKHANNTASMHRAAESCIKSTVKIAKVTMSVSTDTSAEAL

Row | Structure (SMILES) | binding to the CB1 receptor (CB1 receptor [1]) | binding to the CB2 receptor (CB2 receptor [2]) | Ki (CB1 receptor [3]) [nM] | affinity for the CB2 receptor relative to the CB1 receptor (CB2 receptor [4]; CB2 (mouse spleen) versus CB1 (rat forebrain)) | Ki (CB2 receptor [4]) [nM]
1 | CCCCCc1cc(O)c2c(c1)OC(C)(C)C1CC=C(C)CC21 (single isomer, unassigned) [Δ^8 -Tetrahydrocannabinol] | binds | binds |  |  | 
2 | CC1=CCC2C(C1)c1c(cc3c(c1O)C1CC(CCC1C)C3(C)C)OC2(C)C (stereo not shown) [AM724] |  |  | 6880 | about 400 times | 16.9
3 | CC1=CCC2C(C1)c1c(cc3c(c1O)C1CC(CCC1C)C3(C)C)OC2(C)C (stereo not shown) [AM725] |  |  | 360000 |  | 281
4 | CCCCCCC1CCc2cc(O)c3c(c2C1)OC(C)(C)C1CC=C(C)CC31 (stereo not shown) [AM855] |  |  | 22.3 |  | 58.6
5 | CCCCCC1CCc2c(cc3c(c2O)C2CC(C)=CCC2C(C)(C)O3)C1 (stereo not shown) [AM856] |  |  | 402 |  | 162
6 | CCCCCCC1CCCc2c1cc(O)c1c2OC(C)(C)C2CC=C(C)CC12 (stereo not shown) [AM858] |  |  | 524 |  | 456
